These results are taken from PubChem BioAssay AID1996.

The structures appear in SMILES notation. Converted amounts (≈) assume the structure as drawn.

The conditions of the data set: buffer; pH 7.4; 200.0 µM.
In turn, `Cc1ccc(-n2c(SCC(N)=O)nnc2-c2cnccn2)cc1` registered a solubility (kinetic) above 49 µg/mL.

Turning to `NC(=O)Nc1ccc(C(=O)OCC(=O)N2CCCC2=O)cc1`, the kinetic solubility was above 45.8 µg/mL.

Take `COc1ccc(NC(=O)c2cc(=O)c3ccccc3o2)cc1Cl`: the kinetic solubility was below 0.7 µg/mL.

`C/C(=C\C(=O)c1ccc(Cl)s1)N(C)C`: the kinetic solubility was above 34.5 µg/mL.

With `Cn1c(=O)[nH]c(=O)c2c1nc(N)n2Cc1ccccc1`, the kinetic solubility was above 40.7 µg/mL.

In turn, `CCC(CC)NC(=O)c1cccc(Br)c1` yielded a solubility (kinetic) of 38.1 µg/mL (≈ 141 µM).

For `CCOc1ccc(N2CC(C(=O)N3CCCc4ccccc43)CC2=O)cc1` (configuration not stated), the solubility (kinetic) came out at 47.2 µg/mL (≈ 130 µM).

Take `O=C(COC(=O)CNC(=O)c1ccccc1Cl)NC1CCCC1`: the solubility (kinetic) was above 50.8 µg/mL.

The compound `COc1cccc(CNC(=O)CCCSc2ccccc2)c1` showed a solubility (kinetic) of 35 µg/mL (≈ 111 µM).

`CCCc1cnc(N2CCN(C(=S)NC)CC2)nc1` displayed a solubility (kinetic) of 38.7 µg/mL (≈ 139 µM).

`Cc1cccc(-c2noc(CCCC(=O)NC3CCCCC3)n2)c1`: the kinetic solubility worked out at 4.5 µg/mL (≈ 13.7 µM).

For `O=C(Nc1nccs1)c1ccc(-c2ccc(F)c(Cl)c2)o1`, the solubility (kinetic) was 0.5 µg/mL (≈ 1.55 µM).

`COC(=O)CSc1nc2ccc(N)cc2s1` had a kinetic solubility above 38.1 µg/mL.

Regarding `Cc1c(C=O)c2ccccn2c1C(=O)c1ccc(F)cc1`, the solubility (kinetic) worked out at 6.5 µg/mL (≈ 23.1 µM).

The compound `O=C(NCc1ccco1)C(=O)c1cn(CC(=O)N2CCCCCC2)c2ccccc12` yielded a kinetic solubility of 14.3 µg/mL (≈ 35.1 µM).

Regarding `COC(=O)c1cc(C(=O)N2CCOCC2)cc([N+](=O)[O-])c1`, the solubility (kinetic) was above 44.1 µg/mL.

In the case of `Cc1cc(OCCCCN2C(=O)NC(C)(C)C2=O)ccc1[N+](=O)[O-]`, the solubility (kinetic) is above 50.3 µg/mL.

Regarding `Nc1ccccc1OCCOc1ccccc1N`, the solubility (kinetic) was above 36.6 µg/mL.

Compound `O=C(COC(=O)/C=C/c1cccc(F)c1)NC1CCCC1` registered a kinetic solubility of 7.8 µg/mL (≈ 26.8 µM).

Consider `COc1ccc(/C=C/C(=O)O)cc1S(=O)(=O)NCc1ccccc1`, for which the solubility (kinetic) turned out to be 49.6 µg/mL (≈ 143 µM).

Regarding `COc1ccc(Nc2ccc(C(N)=O)cc2[N+](=O)[O-])cc1`, the solubility (kinetic) worked out at 14.3 µg/mL (≈ 49.8 µM). This solubility kinetic lies about 3.5-fold lower than the previous one.

On to `O=c1c(NCCc2ccc(Cl)cc2)c(-c2ccccc2)c1=O`, for which the kinetic solubility was determined as 2.6 µg/mL (≈ 8.34 µM).

As for `Cc1cccc(C(=O)N=c2sccn2C)c1[N+](=O)[O-]`, the solubility (kinetic) worked out at 17.3 µg/mL (≈ 62.4 µM). This solubility kinetic is about 6.7-fold higher than that of the compound before.

`C#CCN1CCN(c2cccc(C(F)(F)F)c2)CC1` had a solubility (kinetic) of 9.8 µg/mL (≈ 36.5 µM).

On to `CC(CCc1ccccc1)NC(=O)CN(C)Cc1ccc(F)cc1` (configuration not stated), for which the solubility (kinetic) is 34.4 µg/mL (≈ 105 µM).

In turn, `Cc1cc(/C=C2/C(=O)NC(=O)N(C)C2=O)c(C)n1-c1ccccc1` showed a solubility (kinetic) of 1.1 µg/mL (≈ 3.4 µM).

With `O=C(Cc1ccccc1[N+](=O)[O-])N1CCOCC1`, the solubility (kinetic) is above 37.5 µg/mL.

Turning to `CCOC(=O)CSc1nc(C)c2cc(C)c(C)cc2n1`, the kinetic solubility worked out at 6 µg/mL (≈ 20.7 µM).

`Cc1ccc2[nH]c(C(=O)N3CCCCC3)cc2c1` showed a kinetic solubility of 7.6 µg/mL (≈ 31.4 µM).

Compound `COC(=O)c1c(C)oc(C)c1S(=O)(=O)N(C)C1CCCCC1` yielded a kinetic solubility of 38.9 µg/mL (≈ 118 µM).

The compound `CCC(C)NC(=O)c1ccc(CN2CCc3ccccc3C2)cc1` (configuration not stated) registered a kinetic solubility of 7.1 µg/mL (≈ 22 µM).

Regarding `O=C(NC1CCCc2ccccc21)C1CCCC1` (configuration not stated), the solubility (kinetic) was 27.3 µg/mL (≈ 112 µM). This solubility kinetic is about 3.8-fold higher than that of the compound before.

Consider `O=C(NCc1ccccc1)c1ccc(NC(=O)C2CCCO2)cc1` (configuration not stated), for which the solubility (kinetic) was above 48.7 µg/mL.

`COc1ccccc1CNC(=S)NCc1ccc(Cl)cc1` yielded a solubility (kinetic) of 11.8 µg/mL (≈ 36.8 µM).

The compound `CC(=O)c1ccc(NC(=O)c2ccc3nc(C)sc3c2)cc1` registered a solubility (kinetic) of 1.9 µg/mL (≈ 6.12 µM).

The compound `COc1ccc(CNc2nccs2)cc1OC` gave a kinetic solubility above 37.5 µg/mL.

`O=C(CC(Nc1ccc(Cl)cc1Cl)C(=O)O)c1ccccc1` (configuration not stated) had a solubility (kinetic) of 50 µg/mL (≈ 148 µM).

Compound `CN(CC(=O)Nc1cccc(F)c1)C(=O)CSc1ccccc1F` gave a kinetic solubility of 46.7 µg/mL (≈ 133 µM).

Turning to `CNC(=O)COc1ccc2oc3c(c2c1)CCCC3`, the solubility (kinetic) was determined as 31 µg/mL (≈ 120 µM). This solubility kinetic is about 1.5-fold lower than that of the compound before.

The compound `COc1cccc(C(=O)Nc2ccc3c(c2)OCO3)c1OC` displayed a kinetic solubility of 36.8 µg/mL (≈ 122 µM). This solubility kinetic and that of the compound before are within 1.5-fold of each other.

On to `CC(=O)c1c(C)[nH]c(C(=O)Nc2ccc(F)cc2F)c1C`, for which the kinetic solubility was found to be 20.6 µg/mL (≈ 70.5 µM). This solubility kinetic is about 1.8-fold lower than that of the compound before.

Consider `Cc1cc(NC(=O)c2cc([N+](=O)[O-])cc([N+](=O)[O-])c2C)no1`, for which the kinetic solubility amounted to 38.9 µg/mL (≈ 127 µM). This solubility kinetic lies about 1.9-fold higher than the previous one.

For `CN(Cc1ccc2c(c1)OCCO2)C(=O)CSc1ncnc2sccc12`, the kinetic solubility turned out to be 41.8 µg/mL (≈ 108 µM). This solubility kinetic and that of the compound before are within 1.5-fold of each other.

As to `N#Cc1ccccc1NC(=O)Nc1ccccc1`, the solubility (kinetic) was above 35.6 µg/mL.

`Cc1ccccc1C(=O)Nc1cccc(NC(=O)c2cccnc2)c1` had a kinetic solubility of 45.8 µg/mL (≈ 138 µM).

Consider `CN1CCN(C(=O)c2cc([N+](=O)[O-])cc([N+](=O)[O-])c2)CC1`, for which the kinetic solubility turned out to be 31.4 µg/mL (≈ 107 µM). This solubility kinetic and that of the compound before are within 1.5-fold of each other.

For `COc1cccc(NC(=O)CSc2nnc(-c3cccnc3)o2)c1`, the kinetic solubility is above 51.4 µg/mL.

As to `Cc1ccc(SCC(=O)NCCCc2ccccc2)cc1`, the solubility (kinetic) turned out to be 5.7 µg/mL (≈ 19 µM).

For `Cc1ccc(C)c(-c2csc(NC(=O)C3=COCCO3)n2)c1`, the kinetic solubility was found to be 11.3 µg/mL (≈ 35.7 µM).

Regarding `O=C(CN1C(=O)C2(OCCO2)c2cc(Br)ccc21)NO`, the kinetic solubility worked out at 46.7 µg/mL (≈ 136 µM).

On to `O=[N+]([O-])c1ccc(N2CCCC2)nc1N1CCCC1`, for which the kinetic solubility is 21.4 µg/mL (≈ 81.6 µM).

`O=C1CCc2cc(S(=O)(=O)NC3CCCCC3)ccc2N1`: the solubility (kinetic) was above 46.3 µg/mL.

The term kinetic solubility denotes solubility judged after dilution from a stock solution rather than from solid.
